Assays:
[1] = test system: ischemia-induced ST segment elevation; test: Ischemia-induced ST segment elevation in anesthetized rabbits; assay type: in vivo, rabbit; details: iv infusion, 0.9 uM concentration
Description: This study was undertaken to determine the anti-ischemic effects of compounds of the present disclosure in an in vivo rabbit model.
Female New Zealand rabbits (3.0-4.0 kg) were purchased from Western Oregon Rabbitry. Animals were housed on a 12-h light and dark cycle and received standard laboratory chow and water. All experiments were performed in accordance with the Guide for the Care and Use of Laboratory Animals published by The National Research Council and with the experimental protocol approved by the Institutional Animal Care Committee of Gilead Sciences, Inc.
Rabbits were anesthetized with ketamine (35 mg/kg) and xylazine (5 mg/kg) intramuscular injection (im). A tracheotomy was performed and the trachea was intubated with an endotracheal tube. […]
Reference electrodes were placed in the open incision of the neck. The body temperature of the animal was monitored via a rectal thermometer and maintained at 37-40° C. by adjusting the surface temperature of the surgical table. […] The ischemic area was visualized by perfusing the heart with 1% Evans blue in saline and calculated as a percentage of total ventricular weight. […]

hNaV1.3 (SCN3A) = test: Voltage-dependent inhibition of the NaV1.3 sodium channel; assay type: cell-based, human; details: voltage-dependent block at 1 uM
Description: HEK-293 cells stably expressing wild-type (WT) hNaV1.3 (SCN3A NCBI # NP_001075, SCN1B NCBI # NM_001037.4, SCN2B NCBI # NM_004588.2) were used to record INa. Cells are maintained with standard tissue culture procedures and stable channel expression is maintained with 800 ug/mL G418 and 3 ug/mL Puromycin in the culture medium. Unless otherwise noted, all reagents are purchased from Sigma-Aldrich (St Louis, Mo., U.S.A.).
Assays measuring Voltage-Dependent Block (VDB) of NaV1.3 are performed on an automated electrophysiology platform, QPatch 16X or QPatch HT (Sophion Bioscience, Copenhagen, Denmark), using the whole cell patch clamp technique to measure currents through the cell membrane. Series resistance compensation is set to 100% and series resistance and whole-cell compensation are performed automatically. Currents stored in the Sophion Bioscience Oracle database (Sophion Bioscience, Copenhagen, Denmark). Analysis is performed using QPatch Assay software and data are compiled in Excel 2010 (Microsoft, Seattle, Wash., U.S.A.).
The internal (pipette) solution consists of (in mM) 105 CsF, 10 NaF, 20 CsCl, 2 EGTA, 10 HEPES, 10 Dextrose with a pH of 7.35 and osmolarity of 300 mOsmol/kg. The external (bath) solution contains in (mM): 80 NaCl, 60 Choline-Cl, 4 KCl, 1.8 CaCl2, 1 MgCl2, 10 dextrose, 10 HEPES, with a pH of 7.35 and osmolarity of 310 mOsmol/kg. Experiments are carried out at 23-25° C.
Compound stocks are routinely made by the Gilead Sample Bank in vials to 10 mM in dimethyl sulfoxide (DMSO). In some cases, when compounds are not soluble in DMSO, they are made in 100% ethanol. […] Cells are allowed to stabilize for 10 min after establishment of the whole-cell configuration before current is measured. […]
Voltage-dependent block of NaV1.3 peak current was measured during a voltage step to 0 mV (20 ms) following a voltage step pre-conditioning steps (−55 mV for 10 sec followed by −120 mV for 10 ms). […] The voltage protocol for VDB was performed every 45 seconds in the absence and presence of compound and percentage inhibition was calculated with respect to the compound free condition.

SMILES	inhibition in the rabbit ST segment elevation assay [1] [%]	NaV1.3 VDB % inhibition at 1 uM (hNaV1.3 (SCN3A)) [%]
COc1cc(OC(F)(F)F)ccc1-c1ccc2c(c1)CN(Cc1ncccn1)C(=O)O2 [Example 1, 6-(2-methoxy-4-(trifluoromethoxy)phenyl)-3-(pyrimidin-2-ylmethyl)-3,4-dihydro-2H-benzo[e][1,3]oxazin-2-one]	58	
Cc1cc(-c2ccc3c(c2)CN(Cc2ncccn2)C(=O)O3)ccc1OC(F)(F)F [Example 5, 6-(3-methyl-4-(trifluoromethoxy)phenyl)-3-(pyrimidin-2-ylmethyl)-3,4-dihydro-2H-benzo[e][1,3]oxazin-2-one]		31
O=C1Oc2ccc(-c3ccc(OC(F)(F)F)cc3F)cc2CN1Cc1ncccn1 [Example 7, 6-(2-fluoro-4-(trifluoromethoxy)phenyl)-3-(pyrimidin-2-ylmethyl)-3,4-dihydro-2H-benzo[e][1,3]oxazin-2-one]		32
Cc1cc(OC(F)(F)F)ccc1-c1ccc2c(c1)CN(Cc1ncccn1)C(=O)O2 [Example 8, 6-(2-methyl-4-(trifluoromethoxy)phenyl)-3-(pyrimidin-2-ylmethyl)-3,4-dihydro-2H-benzo[e][1,3]oxazin-2-one]		13.8
